Source: patent US9000162B2, “5,8-difluoro-4-(2-(4-(heteroaryloxy)-phenyl)ethylamino)quinazolines and their use as agrochemicals” (Dow AgroSciences LLC, priority 2008, dated 2015)

Assays:
Type in all cases: in vivo
[1] = tested on: Pseudoperonospora cubensis (PSPECU); assay: Cucumber downy mildew foliar protectant test; settings: 200 ppm foliar, inoculated one day after treatment, read-out: Activity against fungal diseases PSPECU
Experimental: The plants were inoculated with the fungus one day after treatment. ***=80-100% control; **=50-79% control; *=0-49% control. It will be understood by those in the art that the efficacy of the compounds against the foregoing fungi establishes the general utility of the compounds as fungicides. The activity of the compounds as effective fungicides was determined by applying the compounds to plants and observing control of fungal disease. […] All plants were inoculated with spores of the fungus the day after treatment, then incubated in an environment conducive to disease development. Disease severity was evaluated 4 to 25 days later, depending on the speed of disease development. The following experiments were performed in the laboratory to determine the fungicidal efficacy of the compounds of the invention. Cucumber Downy Mildew (Causal Agent Pseudoperonospora cubensis; Bayer Code […]): Cucumber plants (variety “Bush Champion' or 'Bush Pickle Hybrid') were grown from seed in a soil-less peat-based potting mixture (Metromix) until the first true leaf was 20-80% expanded. Each pot contained 1 seedling. These plants were sprayed until wet with the formulated test compound. On the following day, the leaves were inoculated with an aqueous suspension of downy mildew sporangia and the plants were kept in high humidity for one day to permit sporangia to germinate and infect the leaf. The plants were then incubated in a growth chamber until disease developed on untreated control plants. Table 1 presents the activity of typical compounds of the present invention when evaluated in these experiments. The effectiveness of the test compounds at controlling disease when sprayed on leaves was determined by assessing the severity of disease on treated plants, then converting the severity to percent control based on the level of disease on untreated, inoculated plants.

[2] = tested on: Puccinia recondita tritici (PUCCRT); assay: Leaf rust of wheat foliar protectant test; settings: 200 ppm foliar, inoculated one day after treatment, read-out: Activity against fungal diseases PUCCRT
Experimental: (§1) The plants were inoculated with the fungus one day after treatment. ***=80-100% control; **=50-79% control; *=0-49% control. It will be understood by those in the art that the efficacy of the compounds against the foregoing fungi establishes the general utility of the compounds as fungicides. The activity of the compounds as effective fungicides was determined by applying the compounds to plants and observing control of fungal disease. […] All plants were inoculated with spores of the fungus the day after treatment, then incubated in an environment conducive to disease development. Disease severity was evaluated 4 to 25 days later, depending on the speed of disease development. The following experiments were performed in the laboratory to determine the fungicidal efficacy of the compounds of the invention. […] Each pot contained 3-8 seedlings. These plants were sprayed until wet with the formulated test compounds. On the following day, the leaves were inoculated with an aqueous spore suspension of Puccinia recondita tritici and the plants were kept in high humidity overnight to permit spores to germinate and infect the leaf. The plants were then transferred to a greenhouse until disease developed on untreated control plants. Table 1 presents the activity of typical compounds of the present invention when evaluated in these experiments. The effectiveness of the test compounds at controlling disease when sprayed on leaves was determined by assessing the severity of disease on treated plants, then converting the severity to percent control based on the level of disease on untreated, inoculated plants.

[3] = tested on: Magnaporthe grisea = Pyricularia oryzae (PYRIOR); assay: whole plant or invertebrate; settings: foliar, read-out: Activity against fungal diseases PYRIOR
[4] = tested on: Septoria tritici (SEPTTR); assay: Septoria blotch of wheat foliar protectant test; settings: Zymoseptoria tritici, read-out: Activity against fungal diseases SEPTTR; for pest or weed control at 200 ppm: 200 ppm foliar, inoculated one day after treatment; for pest or weed control at 25 ppm: foliar, Tested at 25 ppm (footnote b)
Experimental: as §1, with “3-10” for “3-8”, “compound.” for “compounds.”, “Septoria” for “Puccinia recondita”, “(one day in a dark dew chamber followed by three days in a lighted dew chamber)” for “overnight”

| SMILES | pest or weed control at 200 ppm [1] [%] | pest or weed control at 200 ppm [2] [%] | pest or weed control at 200 ppm [3] [%] | pest or weed control at 200 ppm [4] [%] | pest or weed control at 3 ppm [3] [%] | pest or weed control at 25 ppm [4] [%] |
| --- | --- | --- | --- | --- | --- | --- |
| CC(C)Oc1cc(CCNc2ncnc3c(F)ccc(F)c23)ccc1Oc1cc(C(F)(F)F)ccn1 [Compound 58] | 80 to 100 | 80 to 100 | 80 to 100 | 80 to 100 |  |  |
| Cc1cc(CCNc2ncnc3c(F)ccc(F)c23)ccc1Oc1ccncc1C(F)(F)F [Compound 37] | 80 to 100 | 80 to 100 |  |  | 80 to 100 | 50 to 79 |
| COc1cc(CCNc2ncnc3c(F)ccc(F)c23)ccc1Oc1ccnc(C(F)(F)F)c1Cl [Compound 78] | 80 to 100 | 80 to 100 | 80 to 100 | 80 to 100 |  |  |
| Fc1ccc(F)c2c(NCCc3ccc(Oc4ccncc4C(F)(F)F)cc3)ncnc12 [Compound 83] | 80 to 100 | 80 to 100 | 80 to 100 | 80 to 100 |  |  |
| Cc1cc(CCNc2ncnc3c(F)ccc(F)c23)ccc1Oc1cc(C(F)(F)F)ncn1 [Compound 117] | 80 to 100 | 80 to 100 | 80 to 100 |  |  | 80 to 100 |
| Cc1cc(Oc2cc(C(F)(F)F)ccn2)c(C)cc1CCNc1ncnc2c(F)ccc(F)c12 [Compound 19] | 80 to 100 | 80 to 100 | 80 to 100 | 80 to 100 |  |  |
| COc1cc(CCNc2ncnc3c(F)ccc(F)c23)ccc1Oc1ncc(C(F)(F)F)cc1F [Compound 45] | 80 to 100 | 80 to 100 | 0 to 49 | 80 to 100 |  |  |
| [O-][n+]1ccc(Oc2ccc(CCNc3ncnc4c(F)ccc(F)c34)cc2)c(C(F)(F)F)c1 [Compound 84] | 80 to 100 | 80 to 100 | 80 to 100 | 80 to 100 |  |  |
| Cc1cc(C(F)(F)F)cc(Oc2ccc(CCNc3ncnc4c(F)ccc(F)c34)cc2)n1 [Compound 7] | 80 to 100 | 80 to 100 | 80 to 100 | 80 to 100 |  |  |
| Fc1cc(C(F)(F)F)cnc1Oc1ccc(CCNc2ncnc3c(F)ccc(F)c23)cc1 [Compound 5] | 80 to 100 | 80 to 100 | 80 to 100 |  |  | 80 to 100 |
| Fc1ccc(F)c2c(NCCc3cccc(Oc4cc(C(F)(F)F)ccn4)c3)ncnc12 [Compound 40] | 80 to 100 | 80 to 100 | 80 to 100 |  |  | 50 to 79 |
| CC(F)(F)c1cc[n+]([O-])c(Oc2ccc(CCNc3ncnc4c(F)ccc(F)c34)cc2)c1 [Compound 10] | 80 to 100 | 80 to 100 | 50 to 79 | 80 to 100 |  |  |
| COc1cc(CCNc2ncnc3c(F)ccc(F)c23)ccc1Oc1ccnc(C(F)(F)F)c1 [Compound 77] | 80 to 100 | 80 to 100 | 80 to 100 | 80 to 100 |  |  |
| Cc1c(O)ccc(CCNc2ncnc3c(F)ccc(F)c23)c1C [Compound 23] | 80 to 100 | 50 to 79 | 50 to 79 | 0 to 49 |  |  |
| [O-][n+]1ccc(C(F)(F)F)cc1Oc1ccc(CCNc2ncnc3c(F)cc(F)c(F)c23)cc1 [Compound 75] | 80 to 100 | 80 to 100 | 80 to 100 | 80 to 100 |  |  |
| Fc1ccc(F)c2c(NCCc3ccc(Oc4ccnc(C(F)(F)F)c4Cl)cc3)ncnc12 [Compound 96] | 80 to 100 | 80 to 100 | 80 to 100 | 80 to 100 |  |  |
| CCc1cc(CCNc2ncnc3c(F)ccc(F)c23)ccc1Oc1cc(C(F)(F)F)ccn1 [Compound 66] | 80 to 100 | 80 to 100 | 80 to 100 | 80 to 100 |  |  |
| COc1ccc(CCNc2ncnc3c(F)ccc(F)c23)cc1Cl [Compound 85] | 80 to 100 | 0 to 49 | 50 to 79 | 0 to 49 |  |  |
| Cc1cc(CCNc2ncnc3c(F)ccc(F)c23)ccc1Oc1ccnc(C(F)(F)F)c1 [Compound 82] | 80 to 100 | 80 to 100 | 80 to 100 | 80 to 100 |  |  |
| Fc1cc(CCNc2ncnc3c(F)ccc(F)c23)ccc1Oc1cc(C(F)(F)F)ncn1 [Compound 132] | 80 to 100 | 80 to 100 | 80 to 100 | 80 to 100 |  |  |
| Fc1ccc(F)c2c(NCCc3ccc(Oc4ccnc(Cl)c4)cc3)ncnc12 [Compound 107] | 80 to 100 | 80 to 100 | 80 to 100 |  |  | 80 to 100 |
| COc1cc(CCNc2ncnc3c(F)ccc(F)c23)ccc1Oc1cc(C(F)(F)F)cc(C)n1 [Compound 44] | 80 to 100 | 80 to 100 | 0 to 49 | 80 to 100 |  |  |
| COC(=O)c1cnc(Oc2ccc(CCNc3ncnc4c(F)ccc(F)c34)cc2)cc1C(F)(F)F [Compound 28] | 80 to 100 | 80 to 100 | 80 to 100 |  |  | 80 to 100 |
| Cc1cc(Oc2cc(C(F)(F)F)ccn2)ccc1CCNc1ncnc2c(F)ccc(F)c12 [Compound 55] | 80 to 100 | 80 to 100 | 80 to 100 | 80 to 100 |  |  |
| Cc1cc(CCNc2ncnc3c(F)cc(F)c(F)c23)ccc1Oc1cc(C(F)(F)F)cc[n+]1[O-] [Compound 81] | 80 to 100 | 80 to 100 | 80 to 100 | 80 to 100 |  |  |
| Oc1ccc(CCNc2ncnc3c(F)cc(F)c(F)c23)cc1Cl [Compound 88] | 80 to 100 | 0 to 49 | 0 to 49 | 0 to 49 |  |  |
| COc1ccc(CCNc2ncnc3c(F)ccc(F)c23)cc1C [Compound 21] | 80 to 100 | 50 to 79 | 50 to 79 |  |  | 0 to 49 |
| COc1cc(C(C)(F)F)cc(Oc2ccc(CCNc3ncnc4c(F)ccc(F)c34)cc2)n1 [Compound 11] | 80 to 100 | 80 to 100 | 50 to 79 | 80 to 100 |  |  |
